Here are results for 34 compounds from a melting point compilation (Tetko et al.; mined from patent text by program, amines drawn as free bases though some values may be those of a salt).

The structures appear in SMILES notation.

The melting point is the temperature of the solid-liquid transition. `Cc1nc(-n2ccc(CCc3ccccc3)cc2=O)sc1C(=O)NCc1ccccc1` displayed a melting point of 149 to 150 °C. For `COC(=O)C[C@H](O)C[C@H](O)CCc1c(-c2ccc(F)cc2)c(-c2ccccc2)c(C(=O)NCc2ccccc2)n1C(C)C`, the melting point fell in the range of 52 to 55 °C. Regarding `CC(=O)c1cccc(N2CCN(CCCCOc3ccc4c(n3)NC(=O)CC4)CC2)c1Cl`, the melting point lay within 138 to 139 °C. The same measure for `O=C(NN=Cc1ccncc1)OC(c1ccccc1)c1ccccc1`: 159 to 160 °C; for `CC(=O)Nc1cccc(Sc2c(Cc3cccc4ccccc34)sc3c2c(=O)n(C)c(=O)n3CC(C)C)c1`: 173 to 174 °C. The same measure for `CC1(C)OC(=O)C(OC2CCCCC2)=C1c1ccc(S(C)(=O)=O)cc1`: 143 to 144 °C. `Cc1onc(-c2ccccc2)c1-c1ccc(S(=O)(=O)NCC(=O)O)cc1`: the melting point is 242 to 248 °C.

Take `COc1ccc(C2Cc3cc(C(F)(F)F)ccc3NC(=O)C2COS(=O)(=O)c2ccc(C)cc2)cc1` (centres undefined): the melting point lay within 170 to 172 °C. As for `CC(C)CCOc1ccc(-c2c(Cl)c(CN3C(=O)CCC3=O)nc3sc4c(c23)CCNC4)cc1`, the melting point lay within 226 to 227 °C. For `CCCCCS(=O)(=O)NC(=O)CC(C)c1ccc(OCCOC)cc1Oc1ncc(C(F)(F)F)cc1Cl` (centres undefined), the melting point was 137 °C.

For `CCOC(=O)[C@@H](O)[C@@H]1OC(=O)c2c(OC)cc(OC)cc21`, the melting point fell in the range of 154 to 156 °C.

For `C[C@@H]1[C@H](c2ccccc2)OC(=O)N1C(=O)CCC(F)(F)F`, the melting point was 93 to 95 °C. Turning to `Cc1cc(-c2ccc(C(F)(F)F)cc2)cn2c(-c3nc(-c4ccc(N)nc4)no3)cnc12`, the melting point was found to be 257 °C.

`COC(=O)C(c1ccc(Cl)cc1)c1c(Cl)cc(-n2ncc(=O)n(C)c2=O)cc1Cl` (centres undefined) showed a melting point of 173 °C. As for `COc1cc(C(F)(F)F)cc(OC)c1-c1csc(NC(=O)c2cc3ccccc3[nH]2)n1`, the figure is above 260 °C; as for `CN(C1c2cc(O)ccc2OC(C)(C)C1O)S(C)(=O)=O` (centres undefined), 204 to 206 °C. `CC1=C(C(=O)c2ccc3c(c2)CCN(C(N)=O)C3)C(C)(C)CCC1` had a melting point of 86.4 to 87.6 °C. As for `CN(C)C(=O)Sc1ccccc1C(=O)c1cccc(C#N)c1`, the figure is 86 °C.

With `Nc1ccc2cccc(Oc3cc(-c4ccc(C(F)(F)F)cc4N)ncn3)c2n1`, the melting point was 233 to 234 °C.

In turn, `Nc1ccc(CCC(=O)c2ccccc2)cc1` gave a melting point of 76 to 78 °C. As to `CCCCNC(=O)N(C)c1cccc(-c2ccc(C=C(OC)C(=O)OC)cc2)c1`, the melting point was 89 °C. The same measure for `C=CCN(C)c1ccc(C(C#N)=C(C#N)C#N)cc1`: 155 °C; for `Oc1ccc(Oc2cc3ccc(Cl)cc3cn2)cc1`: 190 °C. As for `Cc1cc(C)cc(S(=O)(=O)n2c(CCCCC(=O)O)cc3nc(Cl)ccc32)c1`, the figure is 160 °C; as for `CC(C)CC(=O)Nc1cccc(-c2ccnc3c(C(=O)C4CCCC4)cnn23)c1`, 69 to 71 °C. As for `CCCCC(C)C(O)C=Cc1ccc(OCc2ccccc2)c(OCc2ccccc2)c1` (centres undefined), the figure is 77 to 78 °C; as for `Cc1nc2cnc3ccccc3c2[nH]1`, 242 to 245 °C; as for `COc1cc(OC)c2c(=O)[nH]c(-c3cc(C)c(OCCO)c(C)c3)nc2n1`, 255 to 256 °C. In the case of `CC(=O)Nc1ccc(N2N=C(C)CC2=O)cc1`, the melting point was found to be 230 °C. The same measure for `Fc1ccc2c(C3CCN(CCC4COc5ccccc5O4)CC3)noc2c1` (centres undefined): 112 to 113 °C. The same measure for `CN(CCC(=O)Nc1ccc2[nH]ncc2c1)Cc1ccccc1`: 140 to 141 °C. With `COc1ccc(C(=O)Nc2ccc(Cl)cc2)cc1N`, the melting point fell in the range of 191 to 192 °C.

In the case of `COc1cc2c(cc1OC)C1CC(=O)C3CCCCC3N1CC2` (centres undefined), the melting point lay within 129 to 141 °C. In turn, `CCc1nn2c(c1Oc1cc(Cl)cc(Cl)c1)C(=O)NCC2` came in with a melting point of 220 to 223 °C.
